Assay results from patent US20140039047A1, “METHODS FOR REGULATING SIRTUIN GENE EXPRESSION” (priority 2011, published 2014).

Key:
Assay in all cases: Quantitative PCR of sirtuin gene expression in canine adipocytes treated with Equol
Type in all cases: cell-based
Conditions in all cases: 24 hours, terminally differentiated canine adipocytes, normalized to cyclophilin A (PPIA), n=3
SIRT1 = system: SIRT1
Method: (§1) Treatment: Terminally differentiated canine adipocytes were exposed to 200, 25, and 0 uM Equol for 24 hours. Cells were collected for RNA isolation.
(§2) RNA Isolation: Treatment cell samples were vortexed and homogenized using a Quiashredder (Qiagen, Valencia, Calif.) column according to manufacturer's directions. The homogenized lysate was collected and 1 equal volume of 64% ethanol was added to it. This mixture was then applied to an RNAqueous™ filter cartridge, (Ambion Inc., Austin, Tex.) 700 uL at a time, and centrifuged for one minute at 10,000 rpm. The cartridge was washed using 700 uL wash solution #1 and 500 uL wash solution #⅔ with centrifugation at 10,000 rpm for one minute for each wash. The filter cartridge was dried by centrifugation (10,000 rpm) for one minute. RNA was eluted three times by centrifugation (as above) using 30 uL aliquots of 70-80° C. elution solution. The resulting RNA was DNAse-treated and quantitated in a Beckman DU 640B spectrophotometer (Beckman Coulter, Inc., Brea, Calif.) at 260 nm. Additionally, quantity and quality were assessed using a bioanalyzer (Agilent, Santa Clara, Calif.) according to manufacturer's directions.
(§3) Quantitative PCR: All samples were run singularly against each primer/probe set to determine what standard curve(s) should be used. Standard curves were generated using serial dilutions of RNA from experimental samples with the lowest CT (cycle threshold) for a given target. 1-2 samples were re-reverse transcribed and a 1:5 serial dilution were used as the standard curve for a given target. Targets run included sirtuin −1, −2, −3 and −6. Values were normalized to cyclophilin A (PPIA) levels as determined by quantitative PCR. Inductions were calculated from each of the lowest sample's normalized value. Each set was run with n=3.

SIRT2 = system: SIRT2
Method: as §1, §2, §3

SIRT3 = system: SIRT3
Method: as §1, §2, §3

SIRT6 = system: SIRT6
Method: as §1, §2, §3

For `Oc1ccc([C@H]2COc3cc(O)ccc3C2)cc1` [Equol], the “Expression of SIRT1 gene (relative expression)” value (SIRT1; 25 uM Equol) was 1.17, the “Expression of SIRT1 gene (relative expression)” value (SIRT1; 200 uM Equol) was 1.80 and the “Expression of SIRT2 gene (relative expression)” value (SIRT2; 25 uM Equol) was 1.22. The “Expression of SIRT2 gene (relative expression)” value (SIRT2; 200 uM Equol) was 2.37, the “Expression of SIRT3 gene (relative expression)” value (SIRT3; 25 uM Equol) was 10.86 and the “Expression of SIRT3 gene (relative expression)” value (SIRT3; 200 uM Equol) was 17.21. The “Expression of SIRT6 gene (relative expression)” value (SIRT6; 25 uM Equol) was 1.10 and the “Expression of SIRT6 gene (relative expression)” value (SIRT6; 200 uM Equol) was 1.23.
